Molecular target: T1, human EDG-5 (Homo sapiens, UniProt O95136)
T1 construct: expressed in transfected cells; host or cells: Chinese hamster ovary (CHO) cells
Test: Evaluation of antagonistic activity for EDG-5 by monitoring the concentration change of intracellular calcium ion
Format: cell-based
Settings: CHO cells overexpressing human EDG-5 gene, S1P 100 nM stimulation, Fura2, read-out: IC50 value (concentration showing an inhibition rate of 50%)
Method: Evaluation of Antagonistic Activity for EDG-5 by Monitoring the Concentration Change of Intracellular Calcium Ion
Chinese hamster ovary (CHO) cells in which human EDG-5 gene was overexpressed were cultured in Ham's F12 medium (GIBCO BRL) containing 10% FBS (fetal bovine serum), penicillin/streptomycin. and blasticidin (5 μg/mL). Thus cultured cells were incubated in a Fura2 (5 μM)-AM solution [Ham's F12 medium containing FBS (10%), HEPES buffer (20 mM, pH7.4), and probenecid (2.5 mM)] at 37° C. for 60 minutes. Then the cells were washed once with a Hanks' solution (2.5 mM) containing probenecid and immersed into the Hanks' solution. A plate was set on a fluorescent drug screening system, and the concentration of intracellular calcium ion was measured for 30 seconds with no stimulation. A solution of a compound (dimethyl sulfoxide (DMSO) solution of 1 nM to 10 μM at the final concentration) to be tested was added. After lapse of 5 minutes, S1P (final concentration: 100 nM) was added, the concentration of intracellular calcium ion before and after the addition of SiP was measured every 3 seconds (excitation wave length: 340 nm and 380 nm; fluorescent wave length: 500 nm). […]

T1 sequence (O95136 whole entry): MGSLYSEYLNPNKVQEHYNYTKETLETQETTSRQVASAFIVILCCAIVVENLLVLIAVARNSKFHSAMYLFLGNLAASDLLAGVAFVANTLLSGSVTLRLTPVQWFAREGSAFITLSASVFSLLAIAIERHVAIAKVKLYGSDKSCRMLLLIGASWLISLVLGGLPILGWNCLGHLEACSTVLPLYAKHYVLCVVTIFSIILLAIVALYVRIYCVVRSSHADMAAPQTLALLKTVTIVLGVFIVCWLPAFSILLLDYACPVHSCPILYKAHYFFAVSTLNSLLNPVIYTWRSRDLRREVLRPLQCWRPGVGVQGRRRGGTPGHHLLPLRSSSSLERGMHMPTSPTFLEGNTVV

SMILES: CCN(c1ccccc1)C1CN(C(=O)Nc2cc(C(F)(F)F)cc(C(F)(F)F)c2)C1 [Example 3(18), N-[3,5-Bis(trifluoromethyl)phenyl]-3-[ethyl(phenyl)amino]azetidine-1-carboxamide]
- IC50: 950 nM

From patent publication US7511159B2, “Azetidine ring compounds and drugs comprising the same” (Ono Pharmaceutical Co., Ltd., priority 2003, dated 2009)
